Results from patent publication US20230123334A1, “AMINO LIPID COMPOUND, PREPARATION METHOD THEREFOR, AND APPLICATION THEREOF” (SHENZHEN SHENXIN BIOTECHNOLOGY CO., LTD., priority 2020, published 2023).

Key:
Assay type in all cases: cell-based
[1] = system: cardiomyocytes; assay: Screening as mRNA vectors in cardiomyocytes; details: 50 ng EGFP mRNA per well
In short: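 Cardiomyocytes differentiated from hESC, in DMEM with 10% FBS, were transfected with 50 ng EGFP mRNA per well. The read-out was GFP-positive cells as a percentage of Hoechst-stained nuclei, with Lipofectamine Stem as positive control.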

[2] = system: cardiomyocytes; assay: Screening as DNA vectors in cardiomyocytes; parameters: concentration or dose not given beside the values; details: method as Example 4
In short: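 hESC-derived cardiomyocytes in DMEM with 10% FBS were transfected with a GFP DNA vector; Lipofectamine Stem served as positive control. Read-out: percentage of GFP-positive cells relative to total cells counted by Hoechst nuclear stain.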

[3] = system: embryonic stem cells (hESC2); assay: Screening as mRNA vectors in embryonic stem cells; details: 50 ng EGFP mRNA per well
In short: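 EGFP mRNA (50 ng per well) transfected into hESC2 cells grown in mTeSR1; Lipofectamine Stem served as positive control. Read-out: GFP-fluorescent cells as percentage of total cells.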

[4] = system: embryonic stem cells (hESC2); assay: Screening as DNA vectors in embryonic stem cells, flow cytometry; details: 75 ng plasmid DNA, 48 hours after transfection, flow cytometer
In short: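 hESC2 cells in mTeSR1 on matrigel transfected with 75 ng pSin-EGFP-IRES-Puro complexed with amino lipid/DOPE liposomes formed in sodium acetate pH 5.6; 37 °C, 5% CO2. After 48 h, GFP-positive cells counted by flow cytometry (≥2000 cells), efficiency also expressed relative to Lipofectamine Stem.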

[5] = system: Hela cells; assay: Transfection of Hela cell line, mRNA vectors; details: 50 ng EGFP mRNA per well
In short: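 HeLa cells in DMEM with 10% FBS transfected with 50 ng EGFP mRNA per well. Readout is percentage of GFP-positive cells among total cells counted by Hoechst nuclear stain; Lipofectamine2000 served as positive control.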

[6] = system: MCF7 cells; assay: Transfection of MCF7 cell line, DNA vectors; parameters: concentration or dose not given beside the values; details: plasmid DNA, GFP cells / total cells
In short: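 MCF7 cells in DMEM with fetal bovine serum were transfected in 96-well format. Read-out was the percentage of GFP-fluorescent cells among total cells counted by Hoechst nuclear stain. Lipofectamine2000 served as positive control.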

[7] = system: HEK293 cells; assay: Preliminary screening as mRNA vectors, EGFP mRNA transfection of HEK293 cells; details: HEK293 cells, 96-well plates, EGFP mRNA 50 ng per well; percentage of GFP fluorescent cells relative to total number of cells (Hoechst)
In short: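 HEK293 cells in DMEM plus 10% FBS transfected in 96-well format with 50 ng EGFP mRNA per well; Lipofectamine2000 served as positive control. Read-out is the percentage of GFP-fluorescent cells among total cells, counted by Hoechst nuclear stain.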

[8] = system: HEK293 cells; assay: Preliminary screening as DNA vectors, GFP transfection of HEK293 cells; details: HEK293 cells; lipid/DOPE liposome with 75 ng plasmid DNA (psin-EGFP-IRES-Puro); number of cells expressing GFP divided by total number of nuclei (Hoechst)
In short: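 HEK293 cells in DMEM/10% FBS transfected with 75 ng EGFP plasmid per well complexed with amino lipid/DOPE liposomes in pH 5.6 sodium acetate. Hoechst nuclear stain added 20-24 h post-transfection, then cells cultured another 20-24 h. Confocal imaging gives GFP-positive cells as % of total nuclei.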

[9] = system: Hela cells; assay: Transfection of Hela cell line, DNA vectors; details: 75 ng plasmid DNA, GFP cells / total cells
In short: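 Amino lipid/DOPE liposomes in sodium acetate pH 5.6 were complexed with 75 ng psin-EGFP-IRES-Puro plasmid for 30 min at room temperature, then mixed with 3-5×10^4 Hela cells in DMEM/10% FBS at 37° C. Hoechst stain after 20-24 h, imaging after a further 20-24 h. Efficiency = GFP-positive cells / total nuclei.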

[10] = system: MCF7 cells; assay: Transfection of MCF7 cell line, mRNA vectors; details: 50 ng EGFP mRNA per well
In short: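 MCF7 cells in DMEM with fetal bovine serum were transfected with 50 ng EGFP mRNA per well. Read-out was the percentage of GFP-positive cells among total Hoechst-stained nuclei, with Lipofectamine2000 as positive control.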

## CCCCCCCCCCCCCCSc1nc(NCCCN2CCN(C)CC2)nc(SCCCCCCCCC)n1 [Compound S9S14D9]
[1]
  Absolute mRNA transfection efficiency in cardiomyocytes: 12.4%
[2]
  Absolute DNA transfection efficiency in cardiomyocytes: 11.1%
[3]
  Absolute mRNA transfection efficiency in embryonic stem cells: 16.4%
[4]
  Absolute DNA transfection efficiency in embryonic stem cells: 2.5%
[5]
  Absolute mRNA transfection efficiency in Hela cells: 14.8%
[6]
  Absolute DNA transfection efficiency in MCF7 cells: 38.2%
[7]
  Absolute mRNA transfection efficiency in HEK293 cells: 68.8%
[8]
  Absolute DNA transfection efficiency in HEK293 cells: 28.4%
[9]
  Absolute DNA transfection efficiency in Hela cells: 14.8%
[10]
  Absolute mRNA transfection efficiency in MCF7 cells: 19.1%

## CCCCCCCCCCCCCCSc1nc(NCC2CCN(C)CC2)nc(SCCCCCCCCC)n1 [Compound S9S14D10]
[1]
  Absolute mRNA transfection efficiency in cardiomyocytes: 34.4%
[2]
  Absolute DNA transfection efficiency in cardiomyocytes: 7.6%
[3]
  Absolute mRNA transfection efficiency in embryonic stem cells: 23.1%
[4]
  Absolute DNA transfection efficiency in embryonic stem cells: 0.7%
[5]
  Absolute mRNA transfection efficiency in Hela cells: 7.5%
[6]
  Absolute DNA transfection efficiency in MCF7 cells: 50.5%
[7]
  Absolute mRNA transfection efficiency in HEK293 cells: 91.0%
[8]
  Absolute DNA transfection efficiency in HEK293 cells: 14.5%
[9]
  Absolute DNA transfection efficiency in Hela cells: 7.2%
[10]
  Absolute mRNA transfection efficiency in MCF7 cells: 50.3%

## CCCCCCCCCCCCCCCSc1nc(NCCN2CCCC2)nc(SCCCCCCCCC)n1 [Compound S9S15D3]
[1]
  Absolute mRNA transfection efficiency in cardiomyocytes: 6.6%
[2]
  Absolute DNA transfection efficiency in cardiomyocytes: 0.3%
[3]
  Absolute mRNA transfection efficiency in embryonic stem cells: 9.2%
[4]
  Absolute DNA transfection efficiency in embryonic stem cells: 1.8%
[5]
  Absolute mRNA transfection efficiency in Hela cells: 1.4%
[6]
  Absolute DNA transfection efficiency in MCF7 cells: 1.4%
[7]
  Absolute mRNA transfection efficiency in HEK293 cells: 2.5%
[8]
  Absolute DNA transfection efficiency in HEK293 cells: 2.5%
[9]
  Absolute DNA transfection efficiency in Hela cells: 1.4%
[10]
  Absolute mRNA transfection efficiency in MCF7 cells: 1.1%

## CCCCCCCCCCCCCCCSc1nc(NCCN2CCN(C)CC2)nc(SCCCCCCCCC)n1 [Compound S9S15D5]
[1]
  Absolute mRNA transfection efficiency in cardiomyocytes: 1.9%
[2]
  Absolute DNA transfection efficiency in cardiomyocytes: 12.8%
[3]
  Absolute mRNA transfection efficiency in embryonic stem cells: 33.4%
[4]
  Absolute DNA transfection efficiency in embryonic stem cells: 6.2%
[5]
  Absolute mRNA transfection efficiency in Hela cells: 4.4%
[6]
  Absolute DNA transfection efficiency in MCF7 cells: 23.0%
[7]
  Absolute mRNA transfection efficiency in HEK293 cells: 41.3%
[8]
  Absolute DNA transfection efficiency in HEK293 cells: 8.9%
[9]
  Absolute DNA transfection efficiency in Hela cells: 4.4%
[10]
  Absolute mRNA transfection efficiency in MCF7 cells: 27.0%

## CCCCCCCCCCCCCCCSc1nc(NCCCN(C)C)nc(SCCCCCCCCC)n1 [Compound S9S15D6]
[1]
  Absolute mRNA transfection efficiency in cardiomyocytes: 12.9%
[2]
  Absolute DNA transfection efficiency in cardiomyocytes: 6.9%
[3]
  Absolute mRNA transfection efficiency in embryonic stem cells: 2.5%
[4]
  Absolute DNA transfection efficiency in embryonic stem cells: 3.7%
[5]
  Absolute mRNA transfection efficiency in Hela cells: 23.7%
[6]
  Absolute DNA transfection efficiency in MCF7 cells: 48.4%
[7]
  Absolute mRNA transfection efficiency in HEK293 cells: 87.2%
[8]
  Absolute DNA transfection efficiency in HEK293 cells: 47.4%
[9]
  Absolute DNA transfection efficiency in Hela cells: 23.7%
[10]
  Absolute mRNA transfection efficiency in MCF7 cells: 47.3%

## CCCCCCCCCCCCCCCSc1nc(NCCCN2CCOCC2)nc(SCCCCCCCCC)n1 [Compound S9S15D8]
[1]
  Absolute mRNA transfection efficiency in cardiomyocytes: 0.6%
[2]
  Absolute DNA transfection efficiency in cardiomyocytes: 2.0%
[3]
  Absolute mRNA transfection efficiency in embryonic stem cells: 0.4%
[4]
  Absolute DNA transfection efficiency in embryonic stem cells: 1.9%
[5]
  Absolute mRNA transfection efficiency in Hela cells: 11.1%
[6]
  Absolute DNA transfection efficiency in MCF7 cells: 3.0%
[7]
  Absolute mRNA transfection efficiency in HEK293 cells: 5.4%
[8]
  Absolute DNA transfection efficiency in HEK293 cells: 22.2%
[9]
  Absolute DNA transfection efficiency in Hela cells: 11.1%
[10]
  Absolute mRNA transfection efficiency in MCF7 cells: 13.5%

## CCCCCCCCCCCCCCCSc1nc(NCCCN2CCN(C)CC2)nc(SCCCCCCCCC)n1 [Compound S9S15D9]
[1]
  Absolute mRNA transfection efficiency in cardiomyocytes: 7.1%
[2]
  Absolute DNA transfection efficiency in cardiomyocytes: 1.3%
[3]
  Absolute mRNA transfection efficiency in embryonic stem cells: 13.3%
[4]
  Absolute DNA transfection efficiency in embryonic stem cells: 21.6%
[5]
  Absolute mRNA transfection efficiency in Hela cells: 12.6%
[6]
  Absolute DNA transfection efficiency in MCF7 cells: 22.5%
[7]
  Absolute mRNA transfection efficiency in HEK293 cells: 40.4%
[8]
  Absolute DNA transfection efficiency in HEK293 cells: 25.3%
[9]
  Absolute DNA transfection efficiency in Hela cells: 12.6%
[10]
  Absolute mRNA transfection efficiency in MCF7 cells: 27.6%

## CCCCCCCCCCCCCCCSc1nc(NCC2CCN(C)CC2)nc(SCCCCCCCCC)n1 [Compound S9S15D10]
[1]
  Absolute mRNA transfection efficiency in cardiomyocytes: 4.3%
[2]
  Absolute DNA transfection efficiency in cardiomyocytes: 24.8%
[3]
  Absolute mRNA transfection efficiency in embryonic stem cells: 23.0%
[4]
  Absolute DNA transfection efficiency in embryonic stem cells: 16.8%
[5]
  Absolute mRNA transfection efficiency in Hela cells: 28.7%
[6]
  Absolute DNA transfection efficiency in MCF7 cells: 58.8%
[7]
  Absolute mRNA transfection efficiency in HEK293 cells: 94.8%
[8]
  Absolute DNA transfection efficiency in HEK293 cells: 56.1%
[9]
  Absolute DNA transfection efficiency in Hela cells: 28.7%
[10]
  Absolute mRNA transfection efficiency in MCF7 cells: 49.4%
